Experimental data taken from patent US20190135755A1, “CRYSTAL POLYMORPHISM OF KCNQ2-5 CHANNEL ACTIVATOR” (ONO PHARMACEUTICAL CO., LTD., priority 2016, published 2019).
Converted amounts (≈) assume the structure as drawn. Each block holds one molecule with its values, some of them ahead of it.

Experiments:
[1] = Chemical stability test of crystal form under storage conditions; assay type: physicochemical; conditions: all storage conditions, compared with the sample
Protocol: The stability of the crystal form of the present invention was examined under various storage conditions. After storage, the residual ratio (%) of each of the samples stored under the respective conditions with respect to the area percentage of the sample stored at −20° C. was calculated by HPLC. Further, by using a powder X-ray diffraction spectrum, peaks were compared with those of the sample. The appearance was observed by visual inspection and compared with that of the sample.
<Storage Conditions and Sampling Time>
25° C.-60% RH (opened): 3 months
40° C.-75% RH (opened): 3 months
2500 Lux: 20D (shading, transparent)

Human KCNQ2/3 = molecular target: T1, Human KCNQ2/3 (Homo sapiens, UniProt O43525+O43526); experiment: Opening action with respect to KCNQ2/3 channel by depolarization stimulation (thallium influx, FLIPR); assay type: cell-based; conditions: human KCNQ2/3 expressing CHO-DHFR- cells; concentration giving 50% of maximum reaction of retigabine (10 μM); 5 mM potassium and 0.5 mM thallium; read-out: opening action (ECrtg50 value) with respect to the KCNQ2/3 channel
T1 construct: expressed in transfected cells; host or cells: CHO-DHFR- cells
T1 sequence (O43526 whole entry): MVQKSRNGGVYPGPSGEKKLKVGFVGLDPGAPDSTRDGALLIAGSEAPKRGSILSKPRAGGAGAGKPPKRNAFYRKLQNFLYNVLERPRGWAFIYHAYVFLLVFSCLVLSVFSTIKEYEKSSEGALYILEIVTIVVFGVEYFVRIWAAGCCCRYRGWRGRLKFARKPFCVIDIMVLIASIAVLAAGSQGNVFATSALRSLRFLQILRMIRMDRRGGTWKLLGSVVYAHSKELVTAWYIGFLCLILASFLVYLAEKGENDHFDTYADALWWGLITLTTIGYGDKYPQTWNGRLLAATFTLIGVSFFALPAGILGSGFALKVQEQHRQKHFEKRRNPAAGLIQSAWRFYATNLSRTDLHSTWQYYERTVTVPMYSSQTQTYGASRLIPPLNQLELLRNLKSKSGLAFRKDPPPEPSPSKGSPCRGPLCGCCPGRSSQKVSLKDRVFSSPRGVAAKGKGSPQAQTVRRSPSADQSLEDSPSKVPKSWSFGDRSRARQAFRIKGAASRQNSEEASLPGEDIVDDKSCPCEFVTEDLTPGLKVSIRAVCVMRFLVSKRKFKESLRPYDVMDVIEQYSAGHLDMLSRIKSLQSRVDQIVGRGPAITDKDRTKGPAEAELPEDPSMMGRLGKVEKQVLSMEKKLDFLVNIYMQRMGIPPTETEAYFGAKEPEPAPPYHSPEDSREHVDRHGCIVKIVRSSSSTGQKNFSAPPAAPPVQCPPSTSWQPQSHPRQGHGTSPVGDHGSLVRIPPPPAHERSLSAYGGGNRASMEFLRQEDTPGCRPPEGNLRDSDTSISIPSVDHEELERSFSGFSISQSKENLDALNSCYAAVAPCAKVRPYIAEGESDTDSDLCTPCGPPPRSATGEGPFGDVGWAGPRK
T1 sequence (O43525 whole entry): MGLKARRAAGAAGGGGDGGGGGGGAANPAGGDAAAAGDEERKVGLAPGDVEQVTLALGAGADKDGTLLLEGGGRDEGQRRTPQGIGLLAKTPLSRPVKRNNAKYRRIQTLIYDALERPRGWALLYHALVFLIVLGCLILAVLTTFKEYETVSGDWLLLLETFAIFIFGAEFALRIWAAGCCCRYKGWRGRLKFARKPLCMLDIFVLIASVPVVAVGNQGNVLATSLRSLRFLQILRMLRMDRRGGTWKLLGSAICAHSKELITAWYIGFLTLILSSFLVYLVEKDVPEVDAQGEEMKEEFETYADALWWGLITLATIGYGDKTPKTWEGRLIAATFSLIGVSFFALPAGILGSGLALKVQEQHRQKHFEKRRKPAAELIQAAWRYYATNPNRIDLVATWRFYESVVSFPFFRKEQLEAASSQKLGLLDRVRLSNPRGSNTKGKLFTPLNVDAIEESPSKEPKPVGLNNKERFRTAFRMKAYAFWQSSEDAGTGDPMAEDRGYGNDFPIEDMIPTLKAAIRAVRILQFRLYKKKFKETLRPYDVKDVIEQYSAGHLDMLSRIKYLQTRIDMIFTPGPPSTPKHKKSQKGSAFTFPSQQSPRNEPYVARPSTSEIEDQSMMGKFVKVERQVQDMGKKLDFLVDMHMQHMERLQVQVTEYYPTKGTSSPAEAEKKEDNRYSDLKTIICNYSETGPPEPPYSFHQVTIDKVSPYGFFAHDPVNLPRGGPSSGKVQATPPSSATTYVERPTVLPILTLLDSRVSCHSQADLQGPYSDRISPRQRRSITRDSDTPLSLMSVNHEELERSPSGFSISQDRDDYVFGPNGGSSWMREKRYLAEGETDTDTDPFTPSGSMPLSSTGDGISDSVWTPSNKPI
Protocol: Human KCNQ2/3 expression cells (CHO-DHFR-cells) were seeded in each well of a 384-well plate (collagen-coated, black, clear bottom) at 0.5×10^4 cells/50 μL per well and cultured in a MEM ALPHA medium (containing 10 vol % inactivated (56° C., 30 min) fetal bovine serum, 100 IU/mL penicillin, 100 μg/mL streptomycin, and 2 mM L-glutamine) at 37° C. in 5% CO2 for 18 to 24 hours. After the medium in the plate was removed, incubation (room temperature, 60 minutes, shading) was performed in a loading buffer (prepared by the method described in the manual of FluxOR Thallium Detection Kit (Invitrogen, F10016, F10017)). A KCNQ2/3 channel opening action (thallium influx into cells) by depolarization stimulation (5 mM potassium and 0.5 mM thallium) was measured by FLIPR TETRA (Molecular Devices). The compound I was treated 5 minutes before the depolarization stimulation, and the reaction induced by the depolarization stimulation was measured over time for 180 seconds. The channel opening action of the compound I was evaluated based on the change amount of the fluorescence intensity from the time before the depolarization stimulation to the time after the elapse of 180 seconds, and the concentration (ECrtg50) satisfying 50% of the fluorescence intensity change of a maximum reaction (in the treatment at 10 μM) of retigabine under the conditions of this experiment was calculated.

Solubility test = assay type: physicochemical; conditions: aqueous buffer, kinetic from dmso stock, Japanese Pharmacopoeia dissolution test second solution (pH 6.8), room temperature, quantification range 5 to 100 μM
Protocol: A calibration curve solution was prepared at 0.1, 0.4, and 2 μM by diluting a test substance (a 10 mM DMSO solution) with acetonitrile and adding acetonitrile containing an internal standard substance (candesartan).
A sample solution was prepared as follows. 5 μL of the compound I (a 10 mM DMSO solution) was added to 495 μL of the Japanese Pharmacopoeia dissolution test second solution (pH: 6.8), followed by stirring at room temperature for 5 hours. Then, the solution was transferred to a solubility filter plate and subjected to suction filtration. The filtrate (20 μL) was diluted with acetonitrile, followed by adding acetonitrile containing an internal standard substance (candesartan).
Each of the calibration curve and sample solutions (5 μL) was injected into LC-MS/MS (Discovery Max, manufactured by Thermo Scientific, Inc.) and subjected to quantification (quantification range: 5 to 100 μM). The solubility in the case where the value equal to or less than the quantification range was obtained was defined as <5 μM, and the solubility in the case where the value equal to or more than the quantification range was obtained was defined as […].

[2] = Water vapor adsorption/desorption isotherm measurement; assay type: physicochemical; conditions: 25° C., relative humidity of 50% RH or more, based on mass when dried (0% RH)
Protocol: (3) Water Vapor Adsorption/Desorption Isotherm Measurement
Device: DVS Intrinsic, manufactured by SMS Co., Ltd.
Change in relative humidity: 0% to 95% (5% STEP)
STEP transition criterion: percent change in weight: 0.002%/min
A change in mass when the humidity was changed in a stepwise manner (relative humidity: from 0% RH to 95% RH) at 25° C. was recorded over time, and an equilibrium mass at each humidity was determined. Subsequently, based on the mass when dried (0% RH), the percent change in mass at each humidity and the hydration number were determined.

hERG channel = molecular target: T2, hERG channel (Homo sapiens, UniProt Q12809); experiment: Evaluation of action on hERG IKr current (patch-clamp); assay type: cell-based; conditions: HEK293 cells overexpressing hERG, maximum tail current, 10 minutes after application, read-out: 50% hERG channel inhibitory activity
T2 construct: expressed in transfected cells; host or cells: HEK293 cells
T2 sequence (Q12809 whole entry): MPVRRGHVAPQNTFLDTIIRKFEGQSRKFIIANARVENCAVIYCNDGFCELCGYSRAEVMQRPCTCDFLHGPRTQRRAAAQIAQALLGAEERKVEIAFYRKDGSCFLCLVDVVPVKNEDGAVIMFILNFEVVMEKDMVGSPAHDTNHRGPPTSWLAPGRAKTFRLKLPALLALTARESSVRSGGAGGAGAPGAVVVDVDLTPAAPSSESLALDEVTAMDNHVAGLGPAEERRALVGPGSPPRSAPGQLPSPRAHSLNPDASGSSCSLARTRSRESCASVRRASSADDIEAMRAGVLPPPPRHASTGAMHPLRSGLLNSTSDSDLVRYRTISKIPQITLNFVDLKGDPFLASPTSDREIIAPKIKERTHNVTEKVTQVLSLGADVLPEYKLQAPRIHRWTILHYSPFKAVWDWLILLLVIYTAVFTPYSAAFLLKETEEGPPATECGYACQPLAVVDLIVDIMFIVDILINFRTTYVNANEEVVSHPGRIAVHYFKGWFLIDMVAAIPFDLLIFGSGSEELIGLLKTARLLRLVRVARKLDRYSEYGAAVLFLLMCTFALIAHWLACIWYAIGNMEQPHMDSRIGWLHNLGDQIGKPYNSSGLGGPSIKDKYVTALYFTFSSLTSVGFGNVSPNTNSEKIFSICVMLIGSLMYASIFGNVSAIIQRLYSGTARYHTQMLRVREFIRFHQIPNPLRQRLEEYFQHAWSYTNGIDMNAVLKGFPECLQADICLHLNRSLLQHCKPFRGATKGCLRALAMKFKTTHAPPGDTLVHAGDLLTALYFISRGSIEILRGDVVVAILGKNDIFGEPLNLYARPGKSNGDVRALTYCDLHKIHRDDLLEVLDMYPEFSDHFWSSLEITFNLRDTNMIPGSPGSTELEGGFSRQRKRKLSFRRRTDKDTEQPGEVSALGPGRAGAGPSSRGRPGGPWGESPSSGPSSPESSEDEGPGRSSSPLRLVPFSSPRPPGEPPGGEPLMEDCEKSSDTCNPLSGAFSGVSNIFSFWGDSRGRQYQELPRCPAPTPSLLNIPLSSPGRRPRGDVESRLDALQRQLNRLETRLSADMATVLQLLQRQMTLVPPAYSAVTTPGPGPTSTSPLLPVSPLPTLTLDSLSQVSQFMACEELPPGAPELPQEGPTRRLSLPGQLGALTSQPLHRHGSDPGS
Protocol: By using HEK293 cells overexpressing a human ether-a-go-go-related gene (hERG), the maximum tail current of the hERG IKr current induced by redepolarization pulse subsequent to depolarization pulse was measured by a patch-clamp method. The percent change (suppression rate) after 10 minutes from application of a test substance with respect to the maximum tail current before the application of the test substance was calculated (see, Biophysical Journal, vol. 74, pp. 230-241 (1998)).

[3] = tested on: bladder extracted from rat; experiment: Relaxing action on bladder extracted from rat (Magnus test, carbachol contraction); conditions: concentration at which percent change in tension is −20%; carbachol 1 μM contraction; female Wistar rat bladder strip
Protocol: Female Jcl:Wistar rats (CLEA Japan, Inc., body weight at use: 170 to 200 g) were anesthetized by intraperitoneal administration of about 40 mg/kg of pentobarbital (Somnopentyl, Schering Plough Animal Health Corporation), and killed by bloodletting. The bladder was extracted by abdominal incision and immediately thereafter immersed in ice-cooled Krebs buffer (Krebs Ringer bicarbonate buffer (Sigma-Aldlich Co. LLC) supplemented with sodium hydrogen carbonate (final concentration: 15 mM) and calcium chloride (final concentration: 2.5 mM)) saturated with a mixed gas (95% O2, 5% CO2).
The bladder body extracted from each rat was cut into an oblong strip shape (about 10×3 mm), whereby a specimen was prepared on ice. Immediately thereafter, the specimen was suspended in a Magnus tube filled with Krebs buffer (37° C.) bubbled with the mixed gas while applying a tension load of 500 mg thereto. Incidentally, the specimen was prepared within 24 hours after extracting the tissue. […]
The tension (mg) in the extracted bladder was used as an evaluation item. The tension was read using analysis software WAVE THERMO 1000. […] The percent change in tension (%) is calculated according to the following formula. […]
The value at which the percent change in tension (%) was −20% was calculated as IC20 and used as an index of the relaxing action on the extracted bladder.

[4] = Evaluation of stability in human liver microsomes; assay type: in vitro ADME; conditions: 0.5 mg/mL human liver microsomes, NADPH, 37° C., 15 minutes, 5 μmol/L
Protocol: A test compound (a 10 mmol/L DMSO solution, 5 μL) was diluted with a 50% aqueous acetonitrile solution (195 μL), whereby a 0.25 mmol/L solution was prepared.
To a reaction vessel preheated to 37° C., 0.5 mg/mL of human liver microsomes (XenoTech, LLC) and 245 μL of a 0.1 M phosphate buffer solution (pH 7.4) containing NADPH co-factor (BD Biosciences) were added, followed by preincubation for 5 minutes, and thereafter, the above-prepared test compound solution (5 μL) was added thereto to start a reaction (final concentration: 5 μmol/L). Immediately after the start, a 20 μL portion was collected and added to 180 μL of acetonitrile containing an internal standard substance (warfarin) to stop the reaction. A 20 μL portion of this solution was stirred with 180 μL of a 50% aqueous acetonitrile solution on a plate equipped with a deproteinization filter, followed by suction filtration, and the filtrate was used as a standard sample.
After the above-prepared reaction solution was incubated at 37° C. for 15 minutes, a 20 μL portion of the solution was added to 180 μL of cooled acetonitrile (containing warfarin serving as an internal standard substance) to stop the reaction. […]
A residual ratio (%) was calculated as follows. […]

SMILES: C[C@](O)(c1cc(Cl)c(NC(=O)NCc2ccc(Cl)cn2)c(Cl)c1)C(F)(F)F [A crystal, A crystal of 1-[(5-chloro-2-pyridinyl)methyl]-3-{2,6-dichloro-4-[(2S)-1,1,1-trifluoro-2-hydroxy-2-propanyl]phenyl}urea]
- appearance after storage (visual inspection) [1]: a change in appearance was not observed
- powder X-ray diffraction spectrum after storage [1]: an increase in the number of peaks was not observed

SMILES: CC(O)(c1ccc(NC(=O)NCc2ccc(C(F)(F)F)cn2)cc1)C(F)(F)F (centres unmarked) [Comparative Example 1, 1-[4-(1,1,1-trifluoro-2-hydroxy-2-propanyl)phenyl]-3-{[5-(trifluoromethyl)-2-pyridinyl]methyl}urea]
- EC50 (Human KCNQ2/3): > 10000 nM

SMILES: C[C@](O)(c1cc(Cl)c(NC(=O)NCc2ccc(Cl)cn2)c(Cl)c1)C(F)(F)F.O [H crystal, Crystal of hydrate (H crystal) of 1-[(5-chloro-2-pyridinyl)methyl]-3-{2,6-dichloro-4-[(2S)-1,1,1-trifluoro-2-hydroxy-2-propanyl]phenyl}urea]
- percent change in mass [2]: 4%

Now from value to molecule, other results behind:

- solubility at 5 h (Solubility test): < 5 µM
- EC50 (Human KCNQ2/3): 200 nM
SMILES: O=C(Cc1ccc(F)cc1)Nc1c(Cl)cc(Cl)cc1Br [Comparative Example 2, N-(2-bromo-4,6-dichlorophenyl)-2-(4-fluorophenyl)acetamide, reference compound]

- solubility at 5 h (Solubility test): 98 µM (≈ 43.4 µg/mL)
- EC50 (Human KCNQ2/3): 600 nM
- residual ratio (stability against human liver microsomes) [4]: 87%
SMILES: C[C@](O)(c1cc(Cl)c(NC(=O)NCc2ccc(Cl)cn2)c(Cl)c1)C(F)(F)F [compound I, 1-[(5-chloro-2-pyridinyl)methyl]-3-{2,6-dichloro-4-[(2S)-1,1,1-trifluoro-2-hydroxy-2-propanyl]phenyl}urea]
- IC50 (hERG channel): > 10000 nM
- IC20 [3]: 500 nM
